Data taken from US9938281B2 (Merck Sharp & Dohme Corp., priority 2012, dated 2018).

How the values were obtained:
PI3K-delta = target: T1, PI3K-delta (Homo sapiens, UniProt O00329); assay: HTRF PI3K biochemical assay, delta isoform; settings: form screened (neutral or TFA salt) given, read-out: PI3Kdelta IC50
T1 construct: purchased Upstate; Millipore 14-604

PI3K-alpha = target: T2, PI3K-alpha (Homo sapiens, UniProt P42336); assay: HTRF PI3K biochemical assay, alpha isoform; settings: ratio PI3K-alpha IC50 value / PI3K-delta IC50 value
T2 construct: purchased Upstate; Millipore 14-602
T2 sequence (P42336 whole entry, canonical isoform): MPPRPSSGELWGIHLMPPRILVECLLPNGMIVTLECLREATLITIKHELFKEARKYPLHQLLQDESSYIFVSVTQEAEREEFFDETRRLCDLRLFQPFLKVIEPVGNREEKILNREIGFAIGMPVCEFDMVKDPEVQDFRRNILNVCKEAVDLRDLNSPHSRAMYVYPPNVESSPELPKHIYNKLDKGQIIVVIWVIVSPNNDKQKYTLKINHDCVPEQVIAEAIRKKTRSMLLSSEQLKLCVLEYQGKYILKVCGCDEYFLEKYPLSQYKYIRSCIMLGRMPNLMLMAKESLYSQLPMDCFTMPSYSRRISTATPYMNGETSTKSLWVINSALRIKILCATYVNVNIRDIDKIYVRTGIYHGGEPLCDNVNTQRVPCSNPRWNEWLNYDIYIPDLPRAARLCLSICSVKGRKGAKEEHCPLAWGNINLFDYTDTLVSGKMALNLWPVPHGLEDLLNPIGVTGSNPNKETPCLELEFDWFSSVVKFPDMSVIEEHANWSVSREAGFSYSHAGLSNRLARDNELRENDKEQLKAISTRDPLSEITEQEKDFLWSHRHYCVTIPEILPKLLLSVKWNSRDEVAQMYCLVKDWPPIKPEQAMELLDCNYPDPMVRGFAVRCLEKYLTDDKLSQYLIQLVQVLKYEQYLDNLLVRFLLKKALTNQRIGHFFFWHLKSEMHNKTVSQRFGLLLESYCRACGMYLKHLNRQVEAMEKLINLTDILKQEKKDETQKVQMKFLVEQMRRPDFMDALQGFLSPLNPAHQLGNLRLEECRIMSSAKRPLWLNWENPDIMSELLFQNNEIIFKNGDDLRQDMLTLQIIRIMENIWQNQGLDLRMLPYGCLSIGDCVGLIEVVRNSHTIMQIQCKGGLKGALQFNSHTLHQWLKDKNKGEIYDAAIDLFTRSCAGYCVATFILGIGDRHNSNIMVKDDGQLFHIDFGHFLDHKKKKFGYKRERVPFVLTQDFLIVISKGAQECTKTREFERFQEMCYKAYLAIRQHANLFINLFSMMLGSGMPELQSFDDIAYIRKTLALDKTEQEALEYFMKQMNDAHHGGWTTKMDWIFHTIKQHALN
T2 sequence (P27986 whole entry partner, canonical isoform): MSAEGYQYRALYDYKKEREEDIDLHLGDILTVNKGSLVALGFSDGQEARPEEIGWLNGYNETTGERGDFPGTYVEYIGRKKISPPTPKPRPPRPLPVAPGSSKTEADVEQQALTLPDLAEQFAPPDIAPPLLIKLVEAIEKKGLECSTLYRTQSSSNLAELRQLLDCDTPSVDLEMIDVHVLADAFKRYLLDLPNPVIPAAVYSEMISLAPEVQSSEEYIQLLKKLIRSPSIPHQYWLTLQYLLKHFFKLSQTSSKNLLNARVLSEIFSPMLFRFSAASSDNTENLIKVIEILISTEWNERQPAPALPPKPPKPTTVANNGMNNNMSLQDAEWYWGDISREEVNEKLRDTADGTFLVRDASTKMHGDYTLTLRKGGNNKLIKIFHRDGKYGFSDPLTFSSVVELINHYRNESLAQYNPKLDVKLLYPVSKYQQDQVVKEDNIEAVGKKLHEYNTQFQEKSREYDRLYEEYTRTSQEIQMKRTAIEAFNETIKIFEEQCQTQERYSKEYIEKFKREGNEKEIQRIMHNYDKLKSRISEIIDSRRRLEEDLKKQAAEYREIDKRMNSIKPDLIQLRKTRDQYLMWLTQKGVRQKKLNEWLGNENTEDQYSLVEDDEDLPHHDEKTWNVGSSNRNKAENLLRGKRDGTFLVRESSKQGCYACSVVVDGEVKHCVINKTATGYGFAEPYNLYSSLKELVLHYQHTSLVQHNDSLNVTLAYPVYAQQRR

T1 sequence (O00329 whole entry, canonical isoform): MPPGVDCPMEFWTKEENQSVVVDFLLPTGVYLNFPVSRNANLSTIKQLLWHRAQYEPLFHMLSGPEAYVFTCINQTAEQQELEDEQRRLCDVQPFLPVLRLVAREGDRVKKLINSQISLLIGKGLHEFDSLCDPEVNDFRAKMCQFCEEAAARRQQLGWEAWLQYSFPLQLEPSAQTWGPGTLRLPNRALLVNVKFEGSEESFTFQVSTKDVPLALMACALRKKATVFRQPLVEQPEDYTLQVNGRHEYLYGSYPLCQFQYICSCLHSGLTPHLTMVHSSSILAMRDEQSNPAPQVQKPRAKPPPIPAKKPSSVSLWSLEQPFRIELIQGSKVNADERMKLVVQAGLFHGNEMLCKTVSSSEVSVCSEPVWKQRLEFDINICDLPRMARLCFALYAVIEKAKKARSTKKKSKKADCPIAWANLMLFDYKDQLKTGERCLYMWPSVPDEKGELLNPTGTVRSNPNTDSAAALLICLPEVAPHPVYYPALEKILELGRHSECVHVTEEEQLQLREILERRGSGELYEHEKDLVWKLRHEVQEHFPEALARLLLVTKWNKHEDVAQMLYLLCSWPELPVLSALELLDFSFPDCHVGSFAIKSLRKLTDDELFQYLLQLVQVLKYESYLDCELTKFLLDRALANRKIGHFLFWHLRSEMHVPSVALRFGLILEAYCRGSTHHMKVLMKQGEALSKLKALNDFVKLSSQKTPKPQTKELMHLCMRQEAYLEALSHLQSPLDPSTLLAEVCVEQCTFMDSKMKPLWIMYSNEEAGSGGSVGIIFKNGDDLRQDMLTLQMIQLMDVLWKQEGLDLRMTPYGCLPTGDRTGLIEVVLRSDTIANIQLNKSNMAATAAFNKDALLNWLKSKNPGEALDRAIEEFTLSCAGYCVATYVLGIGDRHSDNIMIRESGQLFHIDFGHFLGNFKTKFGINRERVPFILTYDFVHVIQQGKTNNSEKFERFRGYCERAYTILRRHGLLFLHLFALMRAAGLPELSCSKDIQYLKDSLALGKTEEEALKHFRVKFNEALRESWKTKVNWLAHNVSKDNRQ
T1 sequence (P27986 whole entry partner, canonical isoform): as the sequence (P27986 whole entry partner, canonical isoform) above

Row | Structure (SMILES) | IC50 (PI3K-delta) [nM] | Selectivity versus PI3Kalpha (PI3K-alpha)
1 | CCn1c(C(=O)N[C@@H](C)C2CC2)nc2c(N[C@H]3CCN(C(=O)C4CC4)C3)ncnc21 [Compound 6-12, 6-{[(3S)-1-(cyclopropylcarbonyl)pyrrolidin-3-yl]amino}-N-[(1S)-1-cyclopropylethyl]-9-ethyl-9H-purine-8-carboxamide] | 25 | >10
2 | CCn1c(-c2cnc(C)nc2)nc2c(N(C)[C@H]3CCN(C(=O)C4CC4)C3)ncnc21 [Compound 3-29, N-[(3S)-1-(cyclopropylcarbonyl)pyrrolidin-3-yl]-9-ethyl-N-methyl-8-(2-methylpyrimidin-5-yl)-9H-purin-6-amine] | 40 | >10
3 | CCn1c(-c2cnc(C)nc2)nc2c(N[C@H]3CCCN(c4ccccn4)C3)ncnc21 [Compound 4-5, 9-ethyl-8-(2-methylpyrimidin-5-yl)-N-[(3S)-1-pyridin-2-ylpiperidin-3-yl]-9H-purin-6-amine] | 9.6 | >10
4 | CCn1c(-c2cnc(C(C)(C)C)s2)nc2c(N[C@H]3CCN(C(=O)OC(C)(C)C)C3)ncnc21 [Compound 1-6, (S)-tert-butyl 3-((8-(2-(tert-butyl)thiazol-5-yl)-9-ethyl-9H-purin-6-yl)amino)pyrrolidine-1-carboxylate] | < 1 | 8
5 | CCn1c(-c2ccc(C(F)(F)F)nc2)nc2c(N[C@H]3CCN(C(=O)C4CCCO4)C3)ncnc21 (single isomer, unassigned) [Compound 2-103, 9-ethyl-N-{(3S)-1-[(2S or 2R)-tetrahydrofuran-2-ylcarbonyl]pyrrolidin-3-yl}-8-[6-(trifluoromethyl)pyridin-3-yl]-9H-purin-6-amine] | 1.8 | >10
6 | CCn1c(-c2cnc(C)nc2)nc2c(N[C@H]3CCN(C(=O)C4(C#N)CCCC4)C3)ncnc21 [Compound 2-62, 1-{[(3S)-3-{[9-ethyl-8-(2-methylpyrimidin-5-yl)-9H-purin-6-yl]amino}pyrrolidin-1-yl]carbonyl}cyclopentanecarbo-nitrile] | 6 | >10
7 | CCn1c(-c2cnc(C)nc2)nc2c(NC3CN(C(=O)OC(C)(C)C)CC3(F)F)ncnc21 (racemic) [Compound 1-21, (R and S)-tert-butyl 4-{[9-ethyl-8-(2-methylpyrimidin-5-yl)-9H-purin-6-yl]amino}-3,3-difluoropyrrolidine-1-carboxylate] | 9.4 | >10
8 | COc1ncc(-c2nc3c(N[C@H]4CCN(C(=O)OC(C)(C)C)C4)ncnc3n2C)cc1C [Compound 1-8, (S)-tert-butyl 3-((8-(6-methoxy-5-methylpyridin-3-yl)-9-methyl-9H-purin-6-yl)amino)pyrrolidine-1-carboxylate] | 1.7 | >10
9 | CCC(=O)N1CC[C@H](Nc2ncnc3c2nc(-c2ncn(CC)c2C)n3C)C1 [Compound 3-12, 8-(1-ethyl-5-methyl-1H-imidazol-4-yl)-9-methyl-N-[(3S)-1-propanoylpyrrolidin-3-yl]-9H-purin-6-amine] | 690 | >10
10 | CCC(=O)N1CC[C@H](Nc2ncnc3c2nc(-c2cnc(OC)c(C(F)(F)F)c2)n3C)C1 [Compound 3-7, (S)-1-(3-((8-(6-methoxy-5-(trifluoromethyl)pyridin-3-yl)-9-methyl-9H-purin-6-yl)amino)pyrrolidin-1-yl)propan-1-one] | 2.2 | >10
11 | CCn1c(-c2cnc3[nH]ccc3c2)nc2c(N[C@H]3CCN(C(=O)C4CC4)C3)ncnc21 [Compound 3-24, N-[(3S)-1-(cyclopropylcarbonyl)pyrrolidin-3-yl]-9-ethyl-8-(1H-pyrrolo[2,3-b]pyridin-5-yl)-9H-purin-6-amine] | < 1 | >10
12 | CCC(=O)N1CC[C@H](Nc2ncnc3c2nc(-c2ccc(S(C)(=O)=O)cc2)n3C)C1 [Compound 3-27, 9-methyl-8-[4-(methylsulfonyl)phenyl]-N-[(3S)-1-propanoylpyrrolidin-3-yl]-9H-purin-6-amine] | 39 | >10
13 | CCn1c(-c2ccc(C(F)(F)F)nc2)nc2c(N[C@H]3CCN(C(=O)C4CCCO4)C3)ncnc21 (single isomer, unassigned) [Compound 2-104, 9-ethyl-N-{(3S)-1-[(2R or 2S)-tetrahydrofuran-2-ylcarbonyl]pyrrolidin-3-yl}-8-[6-(trifluoromethyl)pyridin-3-yl]-9H-purin-6-amine] | 3.4 | >10
14 | CCn1c(-c2cnc(C)nc2)nc2c(N[C@H]3CC[C@@H](C(=O)NC)C3)ncnc21 [Compound 5-7] | 120 | >10
15 | CCn1c(-c2cnc(C)nc2)nc2c(N[C@H]3CCN(c4ccc(C#N)cn4)C3)ncnc21 [Compound 4-11, 6-[(3S)-3-{[9-ethyl-8-(2-methylpyrimidin-5-yl)-9H-purin-6-yl]amino}pyrrolidin-1-yl]pyridine-3-carbonitrile] | 12 | >10
16 | CCN(c1ncnc2c1nc(-c1cnc(C)nc1)n2CC)[C@H]1CCN(C(=O)C2CC2)C1 [Compound 3-28, N-[(3S)-1-(cyclopropylcarbonyl)pyrrolidin-3-yl]-N,9-diethyl-8-(2-methylpyrimidin-5-yl)-9H-purin-6-amine] | 6.7 | >10
17 | CCn1c(-c2ccc(C(F)(F)F)nc2)nc2c(N[C@H]3CCN(C(=O)[C@H]4C[C@H](OC)C4)C3)ncnc21 [Compound 2-106, 9-ethyl-N-{(3S)-1-[(trans-3-methoxycyclobutyl)carbonyl]pyrrolidin-3-yl}-8-[6-(trifluoromethyl)pyridin-3-yl]-9H-purin-6-amine] | 1.2 | >10
18 | CCn1c(-c2cnc(C)nc2)nc2c(N[C@H]3CCN(C(=O)[C@H]4CC[C@@H](O)CC4)C3)ncnc21 [Compound 2-98, cis-4-{[(3S)-3-{[9-ethyl-8-(2-methylpyrimidin-5-yl)-9H-purin-6-yl]amino}pyrrolidin-1-yl]carbonyl}cyclohexanol] | 2.8 | >10
19 | CCn1c(CC2CN(S(C)(=O)=O)C2)nc2c(N[C@H]3CCN(C(=O)C4CC4)C3)ncnc21 [Compound 7-25, N-[(3S)-1-(cyclopropylcarbonyl)pyrrolidin-3-yl]-9-ethyl-8-{[1-(methylsulfonyl)azetidin-3-yl]methyl}-9H-purin-6-amine] | 100 | >10

Other lines, results leading:

Row | IC50 (PI3K-delta) [nM] | Selectivity versus PI3Kalpha (PI3K-alpha) | Structure (SMILES)
20 | 8.9 | >10 | CCn1c(-c2cnc(C)nc2)nc2c(N[C@H]3CCN(C(=O)NCCOC)C3)ncnc21 [Compound 12-2, (3S)-3-{[9-ethyl-8-(2-methylpyrimidin-5-yl)-9H-purin-6-yl]amino}-N-(2-methoxyethyl)pyrrolidine-1-carboxamide]
21 | 4.6 | >10 | CCn1c(-c2cnc(C)nc2)nc2c(N[C@H]3C[C@H](C(=O)NCCO)N(c4ccccn4)C3)ncnc21 [Compound 15-12, (4S)-4-{[9-ethyl-8-(2-methylpyrimidin-5-yl)-9H-purin-6-yl]amino}-N-(2-hydroxyethyl)-1-pyridin-2-yl-D-prolinamide]
22 | 1.7 | >10 | CCn1c(-c2cnc(C)nc2)nc2c(N[C@H]3CCN(C(=O)N4CC[C@H](F)C4)C3)ncnc21 [Compound 12-13, 9-ethyl-N-[(3S)-1-{[(3S)-3-fluoropyrrolidin-1-yl]carbonyl}pyrrolidin-3-yl]-8-(2-methylpyrimidin-5-yl)-9H-purin-6-amine]
23 | 4.5 | >10 | CCn1c(-c2cnc(C)nc2)nc2c(N[C@H]3CCN(C(=O)N4CCOCC4)C3)ncnc21 [Compound 12-4, 9-ethyl-8-(2-methylpyrimidin-5-yl)-N-[(3S)-1-(morpholin-4-ylcarbonyl)pyrrolidin-3-yl]-9H-purin-6-amine]
24 | 15 | >10 | CCn1c(-c2cnc(C)nc2)nc2c(N[C@H]3C[C@H](C(=O)NC(C)C)N(C(=O)C4CC4)C3)ncnc21 [Compound 15-4, (4S)-1-(cyclopropylcarbonyl)-4-{[9-ethyl-8-(2-methylpyrimidin-5-yl)-9H-purin-6-yl]amino}-N-(1-methylethyl)-D-prolinamide]
25 | < 1 | >10 | CCn1c(-n2cnc3c2CCCC3)nc2c(N[C@H]3CCN(C(=O)C4CC4)C3)ncnc21 [Compound 8-8, N-[(3S)-1-(cyclopropylcarbonyl)pyrrolidin-3-yl]-9-ethyl-8-(4,5,6,7-tetrahydro-1H-benzimidazol-1-yl)-9H-purin-6-amine]
26 | 48 | >10 | CCn1c(C#CCO)nc2c(N[C@H]3CCN(C(=O)C4CC4)C3)ncnc21 [Compound 16-4, 3-(6-{[(3S)-1-(cyclopropylcarbonyl)pyrrolidin-3-yl]amino}-9-ethyl-9H-purin-8-yl)prop-2-yn-1-ol]
27 | 2.9 | >10 | CCn1c(-c2cnc(C)nc2)nc2c(N[C@H]3CCN(C(=O)N4CC[C@@H](F)C4)C3)ncnc21 [Compound 12-12, 9-ethyl-N-[(3S)-1-{[(3R)-3-fluoropyrrolidin-1-yl]carbonyl}pyrrolidin-3-yl]-8-(2-methylpyrimidin-5-yl)-9H-purin-6-amine]
28 | 7.4 | >10 | CCn1ncc(-c2nc3c(N[C@H]4CCCN(S(=O)(=O)CC)C4)ncnc3n2C)c1C [Compound 11-1, 8-(1-ethyl-5-methyl-1H-pyrazol-4-yl)-N-[(3S)-1-(ethylsulfonyl)piperidin-3-yl]-9-methyl-9H-purin-6-amine]
29 | 20 | >10 | CCn1c(-c2cnc(C)nc2)nc2c(N[C@H]3C[C@H](C(=O)N[C@@H](C)C(C)C)N(C(=O)C4CC4)C3)ncnc21 [Compound 15-6, (4S)-1-(cyclopropylcarbonyl)-N-[(1S)-1,2-dimethylpropyl]-4-{[9-ethyl-8-(2-methylpyrimidin-5-yl)-9H-purin-6-yl]amino}-D-prolinamide]
